From patent publication US10260108B2, “PARP genomic variants conferring resistance and sensitization to chemotherapy under inhibition” (University of Pittsburgh—Of the Commonwealth System of …, priority 2014, dated 2019)

How the values were obtained:
[1] = system: metastatic melanoma patients; test: Response to TMZ treatment in metastatic melanoma patients by rs1805407 genotype; format: in vivo, human; conditions: all 21 patients that had the SNP rs1805407 (C/T or C/C)
From the text: The melanoma dataset consisted of whole genome gene expression, microRNA expression, DNA methylation, and data from the selected SNP panel. MGM-Learn was used to learn a network over the top 1000 features most correlated (pairwise) with “response” to treatment clinical variable, a binary variable indicating response/no response to temozolomide (TMZ) treatment dichotomized at presence of a response or stability of disease at 4 months of therapy. The 1,000 most correlated features in the input dataset included 557 mRNA expression probes, 425 methylation probes, 14 miRNA probes and 4 SNPs. […] The largest interconnected output network included 20 features connected to the response variable in our initial (undirected) learned network (FIG. 2A). It was emphasized that these features were connected to the response variable not only because they have high pairwise correlation with it (FIG. 2B), but also because they are dependent on response even when conditioned on all other variables included in the input. In this sense, they represent direct (causal) interactions and not simple biomarkers. From the 20 features initially connected to response, 15 were left connected after causal filtering (FIG. 2A, black lines). […]
Melanoma study design: Using a retrospective cohort study design, 69 patients with metastatic melanoma who were treated with alkylator-based chemotherapy were evaluated. […]

[2] = system: SW620; test: MTT cell proliferation assay, MMS alone or with ABT-888; format: cell-based; conditions: Homo sapiens, SW-620, SW620 colon, PARP1/SNP T/T, MMS alone, 72 h, mean (±SD)
From the text: (§1) PARP1 cell proliferation and drug interaction assays: RPMI 1640 and Dulbecco's modified Eagle medium (DMEM) with L-Glutamine, cell culture media were purchased from Cellgro (Mediatech, Inc.). Heat-inactivated Foundation Fetal bovine serum (FBS) was purchased from Gemini bio-products. The alkylating agent, methyl methanesulfonate (MMS) was purchased from Sigma. The PARPi veliparib (ABT-888, Abbott Laboratories, Abbott Park, Ill., USA) was used in the cell proliferation assays. The ABT-888 used in the drug interaction assays was purchased from Selleck Chemicals LLC (Huston, Tex., USA). MMS is an alkylating agent that results in DNA damage at the same bases as dacarbazine and temozolomide and has been used extensively as an alternative in the laboratory setting. ABT-888 was dissolved in dimethyl sulfoxide (DMSO) to a stock solution of 10 mM. A 10 μM working solution was then prepared in PBS for subsequent serial dilutions.
(§2) The cytotoxic effect of the PARP inhibitor veliparib (ABT-888) and the alkylating agent, MMS was assessed using the MTT colorimetric dye reduction assay, according to the manufacturer's instructions (TACS® MTT Cell Proliferation Assay (MTT-CPA) from Trevigen, Inc.). MTT assay was used for each cell line to determine the half-maximal (50%) inhibitory concentration (IC50) values of MMS alone or in combination with ABT-888. Briefly, cells were seeded in triplicates in 96 wells at appropriate cell density (optimized for each individual cell line to have exponentially growing cells during the course of the assay), in their regular culture medium (DMEM with L-Glutamine from Cellgro (Mediatech, Inc.)). After 24 h, the medium was aspirated and the cells were incubated with increasing concentrations of MMS alone (0 to 1 mM) or in the presence of a fixed concentration (10 nM final) of ABT-888 (six replicates for each combination treatment) for 72 h at 37° C. Then, 10 μl of MTT Reagent was added to each well and the plates were incubated for another 4 h at 37° C. in the dark. In each well, 100 μl of Detergent Reagent was then added and incubated at 37° C. until complete solubilization of formazan crystals.
(§3) In single drug treatment experiments (MMS alone), drug-free controls containing 0.5% DMSO were included. In drug combination experiments with increasing concentrations of MMS, the samples with PARPi alone (fixed concentration of 10 nM of ABT-888), were used as controls. All control values were normalized to 100%. Cell viability was measured by reading the absorbance at 570 nm using a Tecan (Safire 2) microplate reader. Reading was converted to the percentage of the controls. The values obtained for each of the triplicates were averaged, and IC50 values were defined as the concentrations of drug(s) that inhibited growth by 50% relative to controls. The data from the MTT assay were expressed as mean IC50±standard deviation (SD). The IC50 of ABT-888, MMS and linear regression analysis were computed by […] Prism 5.0 program ([…] Software, Inc., San Diego, Calif.). For each cell line, the P-value was calculated using the Student t-test (two-tailed, paired) to compare the IC50 means of each treatment group (MMS alone or MMS+ABT-888).

[3] = system: M14; test: as above; format: cell-based; conditions: Homo sapiens, M14 melanoma, PARP1/SNP C/T, MMS alone, 72 h, mean (±SD)
From the text: as §1, §2, §3

[4] = system: H-522; test: as above; format: cell-based; conditions: Homo sapiens, NCI-H522, H-522 lung, PARP1/SNP T/T, MMS alone, 72 h, mean (±SD)
From the text: as §1, §2, §3

[5] = system: A2780; test: as above; format: cell-based; conditions: Homo sapiens, A2780 ovarian, PARP1/SNP C/T, MMS alone, 72 h, mean (±SD)
From the text: as §1, §2, §3

[6] = system: A549; test: as above; format: cell-based; conditions: Homo sapiens, A549 lung, PARP1/SNP C/T, MMS alone, 72 h, mean (±SD)
From the text: as §1, §2, §3

[7] = system: MCF-7; test: as above; format: cell-based; conditions: Homo sapiens, MCF7, MCF-7 breast, PARP1/SNP C/T, MMS alone, 72 h, mean (±SD)
From the text: as §1, §2, §3

[8] = system: A375; test: as above; format: cell-based; conditions: Homo sapiens, A-375, A375 melanoma, PARP1/SNP T/T, MMS alone, 72 h, mean (±SD)
From the text: as §1, §2, §3

[9] = system: MDA-MB-231; test: as above; format: cell-based; conditions: Homo sapiens, MDA-MB-231 breast, PARP1/SNP C/T, MMS alone, 72 h, mean (±SD)
From the text: as §1, §2, §3

[10] = system: FEMX; test: as above; format: cell-based; conditions: Homo sapiens, Fem-X, FEMX melanoma, PARP1/SNP T/T, MMS alone, 72 h, mean (±SD)
From the text: as §1, §2, §3

[11] = system: NCI-60 cell lines; test: NCI-60 […] IC50 values, cell lines with rs1805407 vs wild type; format: cell-based; conditions: NCI60 IC50 values, C/T or C/C (n=23) vs T/T (n=37)
From the text: Given that TMZ damages the DNA and PARP1 has a critical role in DNA repair, one plausible hypothesis is that rs1805407 is either associated with increased PARP1 activity or decreased PARP1 trapping after treatment with alkylating agents (Murai J, et al. (2012) Cancer Res 72(21):5588-5599). The role of rs1805407 in cell response to various drugs was investigated. The NCI-60 […]™ database (Reinhold W C, et al. (2012) Cancer Res 72(14):3499-3511) contains the response of 60 cell lines to ˜50,000 compounds. It was evaluated whether drugs affect differentially the cell lines that have at least one copy of rs1805407 (C/T or C/C) vs wild type (T/T).
SNP imputation on TCGA samples and NCI-60 cell lines: NCI-60 data were obtained from Cell Miner in June 2013 (discover.nci_nih.gov/cellminer/). For those cell lines or TCGA samples for which the identity of SNP rs1805407 was not available we used imputation to infer its identity. Using SNAP (17) we found 51 SNPs to be in perfect linkage disequilibrium (LD) with rs1805407 (R^2=1). Of these, 9 variants were covered by the Affymetrix SNP Array 6.0 used by the TCGA. To determine the rs1805407 genotype in TCGA samples birdseed calls (Korn J M, et al. (2008) Nature genetics 40(10):1253-126) from Affymetrix Genome-Wide Human SNP Array 6.0 were used. Only samples with a birdseed confidence less than 0.1 or where all 9 SNPs in perfect LD agreed with the birdseed call were used.

Q: Which “response to TMZ treatment” value [1] does the source give for `Cn1nnc2c(C(N)=O)ncn2c1=O` [TMZ, temozolomide] here?
A: no response

Q: How did the IC50 [2] turn out when `COS(C)(=O)=O` [MMS, methyl methanesulfonate] was run?
A: 299 µM

Q: What about the IC50 [3] of the same compound?
A: 521 µM

Q: What about the IC50 [4] of the same compound?
A: 578 µM

Q: What about the IC50 [5] of the same compound?
A: 190 µM

Q: And the IC50 [6]?
A: 255 µM

Q: And the IC50 [7]?
A: 193 µM

Q: What about the IC50 [8] of the same compound?
A: 306 µM

Q: What about the IC50 [9] of the same compound?
A: 260 µM

Q: What about the IC50 [10] of the same compound?
A: 166 µM

Q: How did the “resistance or sensitivity of cell lines with at least one allele of rs1805407 vs wild type” value (“resistance or sensitivity … vs wild type” for short) [11] turn out when `O=P1(N(CCCl)CCCl)NCCCO1` (centres unmarked) [Cyclophosphamide] was run?
A: Increased resistance

Q: Which “resistance or sensitivity … vs wild type” value [11] does the source give for `O=C(c1cc(Cc2n[nH]c(=O)c3ccccc23)ccc1F)N1CCN(C(=O)C2CC2)CC1` [olaparib] here?
A: slight increase in sensitivity

Q: Which “resistance or sensitivity … vs wild type” value [11] does the source give for `CC1=C(CO)C2=C(C)C3(CC3)[C@@](C)(O)C(=O)C2=C1` [Irofulven, Hydroxymethylacylfulvene] here?
A: Increased sensitivity

Q: Which “resistance or sensitivity … vs wild type” value [11] does the source give for `O=NN(CCCl)C(=O)NCCCl` [Carmustine] here?
A: Increased resistance
